# Results: patent US7148204B2, “Antisense modulation of bcl-x expression” (Isis Pharmaceuticala, Inc., priority 1998, dated 2006)
# Tests used:
# Shionogi tumor cells = assay: MTT assay, taxol chemosensitivity of Shionogi cells; assay type: cell-based; settings: Mus musculus, without ISIS 16009
# Method: The in vitro growth inhibitory effects of antisense oligonucleotides and/or taxol on Shionogi tumor cells were asessed by the MTT assay (Miyake et al., 1998). Briefly, 1×10^4 cells were seeded in each well of 96-well microtiter plates and allowed to attach overnight. Cells were then treated once daily with 500 nM oligonucleotide for 2 days. Following oligonucleotide treatment, cells were treated with various concentrations of taxol. After a 48 hour incubation, 20 μl of 5 mg/ml MTT (Sigma) in PBS was added to each well, followed by incubation for 4 hr at 37° C. The formazan crystals were dissolved in DMSO. The optical density was determined with a microculture plate reader at 540 nm. Absorbance values were normalized to the values obtained for the vehicle-treated cells to determine the percent of survival. Each assay was performed in triplicate.
# [1] = WST-1 viability assay of MO59K cells with taxol; assay type: cell-based; settings: human
# Method: Cells were seeded at a density of 0.25×10^6 in 6-well plates 24 hours before oligonucleotide treatment. Cultures were then incubated for 4 hours at 37° C. with 200 nM oligonucleotide in the presence of 10 μl Lipofectin as an uptake enhancer, according to the manufacturer's protocol. After incubation, the oligonucleotide-lipofectin mixture was replaced with complete medium and cells were cultured as described above.
# Viability assays were performed in 96-well plates (Costar) on cells cultured as described above. Cells were incubated with taxol in 10 μl medium to a final concentration of 2.5 nM. Controls contained 10 μl medium with the corresponding amount of saline. Viability was determined with the […] WST-1 assay (Boehringer mannheim, Indianapolis, Ind.). and measured using a Dynatech MR-7000 ELISA reader acording to the manufacturer's instructions.
compound,measurement,setting,value
CC(=O)O[C@H]1C(=O)[C@@]2(C)[C@H]([C@H](OC(=O)c3ccccc3)[C@]3(O)C[C@H](OC(=O)[C@H](O)[C@@H](NC(=O)c4ccccc4)c4ccccc4)C(C)=C1C3(C)C)[C@]1(OC(C)=O)CO[C@@H]1C[C@@H]2O [taxol],IC50,Shionogi tumor cells,100 nM
same,"viability at 2 days, 2.5 nM","[1]; taxol 2.5 nM added at day 2, read-out: cell viability after 4 days",63%
same,"cytotoxicity at 24 h, 2.5 nM","[1]; taxol 2.5 nM, after 24 hours, read-out: reduction of viability",25%
same,"cytotoxicity at 48 h, 2.5 nM","[1]; taxol 2.5 nM, after 48 hours, read-out: reduction of viability",37%
